Results from PMC6240031, “CYP6AE gene cluster knockout in Helicoverpa armigera reveals role in detoxification of phytochemicals and insecticides” (Nature Communications, 2018).

Assays:
Test in all cases: substrate depletion, UPLC-MS/MS
Assay type in all cases: biochemical
Conditions in all cases: 20 uM substrate, NADPH regeneration system, 0.1 M potassium phosphate pH 7.4, 30 C, 1 h, microsomes
CYP6AE14 = biological target: T1, CYP6AE14 (Helicoverpa armigera, UniProt A0A068EU65)
T1 construct: full ORF, baculovirus (Bac-to-Bac) in High Five cells, microsomes, co-expressed with H. armigera cytochrome P450 reductase (HaCPR)
T1 sequence (A0A068EU65 1-526): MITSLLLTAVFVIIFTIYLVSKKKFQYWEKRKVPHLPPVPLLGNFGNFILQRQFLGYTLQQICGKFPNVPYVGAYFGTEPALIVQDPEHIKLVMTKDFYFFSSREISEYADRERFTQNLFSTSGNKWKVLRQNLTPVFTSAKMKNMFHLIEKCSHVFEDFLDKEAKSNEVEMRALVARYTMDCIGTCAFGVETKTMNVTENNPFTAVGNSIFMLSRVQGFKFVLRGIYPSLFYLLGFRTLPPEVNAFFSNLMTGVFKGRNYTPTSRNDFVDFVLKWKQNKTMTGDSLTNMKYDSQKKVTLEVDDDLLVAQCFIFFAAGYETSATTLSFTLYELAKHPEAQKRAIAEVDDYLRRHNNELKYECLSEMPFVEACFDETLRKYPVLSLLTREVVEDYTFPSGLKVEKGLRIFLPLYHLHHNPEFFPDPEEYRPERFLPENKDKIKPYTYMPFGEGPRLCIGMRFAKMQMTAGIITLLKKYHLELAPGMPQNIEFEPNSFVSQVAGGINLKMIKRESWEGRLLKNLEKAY

CYP6AE11 = biological target: T2, CYP6AE11 (Helicoverpa armigera, UniProt A0A068ETU4)
T2 construct: full ORF, baculovirus (Bac-to-Bac) in High Five cells, microsomes, co-expressed with H. armigera cytochrome P450 reductase (HaCPR)
T2 sequence (A0A068ETU4 1-522): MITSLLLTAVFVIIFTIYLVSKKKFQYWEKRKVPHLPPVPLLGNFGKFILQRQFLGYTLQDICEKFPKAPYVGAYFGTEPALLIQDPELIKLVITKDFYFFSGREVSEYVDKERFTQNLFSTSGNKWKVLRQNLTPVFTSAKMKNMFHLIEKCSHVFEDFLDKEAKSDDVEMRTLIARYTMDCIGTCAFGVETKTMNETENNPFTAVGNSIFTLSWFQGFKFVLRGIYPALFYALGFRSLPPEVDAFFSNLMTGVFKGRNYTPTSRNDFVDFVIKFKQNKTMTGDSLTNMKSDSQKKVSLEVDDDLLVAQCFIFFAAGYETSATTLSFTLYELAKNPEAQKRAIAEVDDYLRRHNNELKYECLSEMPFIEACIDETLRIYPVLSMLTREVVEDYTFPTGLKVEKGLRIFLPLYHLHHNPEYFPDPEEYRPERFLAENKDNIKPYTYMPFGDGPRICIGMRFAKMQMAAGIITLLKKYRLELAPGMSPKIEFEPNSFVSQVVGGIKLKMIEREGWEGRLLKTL

CYP6AE19 = biological target: T3, CYP6AE19 (Helicoverpa armigera, UniProt A0A068EVL0)
T3 construct: full ORF, baculovirus (Bac-to-Bac) in High Five cells, microsomes, co-expressed with H. armigera cytochrome P450 reductase (HaCPR)
T3 sequence (A0A068EVL0 1-528): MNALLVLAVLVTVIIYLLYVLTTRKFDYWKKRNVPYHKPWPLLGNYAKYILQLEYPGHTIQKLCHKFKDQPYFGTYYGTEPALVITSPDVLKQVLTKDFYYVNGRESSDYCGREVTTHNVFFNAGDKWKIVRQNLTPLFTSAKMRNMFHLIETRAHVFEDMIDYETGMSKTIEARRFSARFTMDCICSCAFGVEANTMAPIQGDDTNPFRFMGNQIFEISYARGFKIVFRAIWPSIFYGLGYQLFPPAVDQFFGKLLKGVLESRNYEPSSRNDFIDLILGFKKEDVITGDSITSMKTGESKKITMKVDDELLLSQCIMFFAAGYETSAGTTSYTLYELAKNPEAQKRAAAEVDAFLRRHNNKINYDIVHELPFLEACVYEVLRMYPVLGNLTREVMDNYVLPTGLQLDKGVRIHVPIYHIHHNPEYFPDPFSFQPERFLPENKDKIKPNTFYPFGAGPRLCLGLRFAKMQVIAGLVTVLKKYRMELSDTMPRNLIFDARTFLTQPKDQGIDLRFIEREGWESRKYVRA

Compound: CCCCCCCCCCCC(C)=O [2-tridecanone]
- substrate depletion, UPLC-MS/MS (CYP6AE14): 2-tridecanone was metabolized by three CYP6AE P450s: CYP6AE11, CYP6AE14, and CYP6AE19
- substrate depletion, UPLC-MS/MS (CYP6AE11): 2-tridecanone was metabolized by three CYP6AE P450s: CYP6AE11, CYP6AE14, and CYP6AE19
- substrate depletion, UPLC-MS/MS (CYP6AE19): 2-tridecanone was metabolized by three CYP6AE P450s: CYP6AE11, CYP6AE14, and CYP6AE19
